Where two headings read alike, the source gives them in different places.
How the values were obtained:
L1210 leukemia = tested on: L1210 leukemia
Experimental: The compounds were tested in male BDF1 mice (18-22 g, 6 mice/group) bearing L1210 leukemia cells. Tumor lines were propagated in DBA/2 female mice with cell (10^5 cells/mouse) transfer every 7 days. Diluted ascitic fluid (0.1 mL) containing 10^5 leukemia cells were inoculated, i.p. in mice on day 0. Mice were injected with 0.1 mL of drug preparation.
A conjugate of HCPT and piperidinopiperidine, PP-HCPT, was synthesized, and its antitumor activity was evaluated against L1210 leukemia in mice.
DHA-HCPT was also tested using multiple doses (days 1, 5 and 9).

colon 38 carcinoma = test: Antitumor activity against colon 38 carcinoma in mice (single dose, early stage and late stage); assay type: in vivo; settings: for weight loss: stated as loss
Source text: However, DHA-HCPT (weight loss of 16%) is less toxic than cisplatin (weight loss of 20%).
The first experiment was designed to evaluate the antitumor activity of the drugs against early tumor, i.e., the tumors were transplanted on day 0, and the drugs were given beginning the next day. The second experiment was designed to evaluate the drug's activity against the established tumor, i.e., the tumors were transplanted on day 0, and the drugs were given when the tumors grew to 3-4 mm in size.
In the late tumor model, at a dose of 100 mg/kg, DHA-HCPT inhibited tumor growth by 80% (Table 10).

L1210 leukemia cells = test: Anticancer activity assay in vitro: 48-h 3H-thymidine incorporation (proliferation) assay; assay type: cell-based, murine; settings: for DNA fragmentation / apoptosis: L1210 cells, data not shown; for IC50: L1210 leukemia cells, 48-h proliferation assay, 3H-thymidine uptake, mean of three experiments
Experimental: L1210 leukemia cells (2.5×10^4cells/well) in RPMI-1640 medium supplemented with 10% FCS medium were seeded in a 96-well plate. Drugs (10 μL) at increasing concentrations were added to each well, and the total volume was adjusted to 0.1 mL/well using the same medium. HCPT was used as a positive control. The plate was incubated for 24 h at 37° C. followed by addition of 10 μL of ^3H-thymidine (20 μCi/mL). The plate was incubated for another 24 h. The cells were harvested, and radioactivity was counted using the Packard Matrix 96 beta counter. The results were expressed as the minimal concentration that inhibits ^3H-thymidine incorporation by 50% (IC50). Percent growth inhibition was calculated as follows: [(total cpm—experimental cpm)/total cpm]×100. […] Doxorubicin (Dox) was used as a positive control.

Lewis lung carcinoma = test: Antitumor activity against Lewis lung carcinoma in mice; assay type: in vivo
Experimental: For example, at a dose of 120 mg/kg, it inhibited tumor growth by 83% while the bodyweight loss was only 10%. The parent HCPT inhibited tumor growth by 57% at a dose of 20 mg/kg with a 24% weight loss. The group treated with DHA-HCPT also lived longer.

[1] = 120 mg/kg i.p. on days 1, 5 and 9
[2] = early stage, 67 mg/kg i.p. on days 1, 5 and 9
[3] = early stage, 100 mg/kg i.p. on days 1, 5 and 9
[4] = late stage, 100 mg/kg i.p. on days 9, 13 and 17
[5] = L1210, 48-h cell growth inhibition assay
[6] = 100 mg/kg i.p. on days 1, 5, and 9
[7] = 5 mg/kg i.p. on days 1, 5, and 9
[8] = 125 mg/kg i.p. on days 1, 5 and 9
[9] = 150 mg/kg i.p. on days 1, 5 and 9

CC/C=C\C/C=C\C/C=C\C/C=C\C/C=C\C/C=C\CCC(=O)Nc1ccc(CN2CCN(C(=O)Oc3ccc4nc5c(cc4c3)Cn3c-5cc4c(c3=O)COC(=O)[C@]4(O)CC)CC2)cc1 (stereo in doubt) [DHA-HCPT, 10-[4-[[4-(cis-4,7,10,13,16,19-Docosahexenoyl)amino]benzyl]-1-piperazino]carbonyl-oxycamptothecin]
% ILS (L1210 leukemia; 40 mg/kg i.p. on day 1): 108% | % Weight change (L1210 leukemia; 40 mg/kg i.p. on day 1): 2% | 30-day survivors (L1210 leukemia; 40 mg/kg i.p. on day 1, 6 mice/group): 0 | % ILS (L1210 leukemia; 60 mg/kg i.p. on day 1): 138% | % Weight change (L1210 leukemia; 60 mg/kg i.p. on day 1): 1% | 30-day survivors (L1210 leukemia; 60 mg/kg i.p. on day 1, 6 mice/group): 0 | % ILS (L1210 leukemia; [1]): 323% | % Weight change (L1210 leukemia; [1]): −12% | % ILS (L1210 leukemia; 180 mg/kg i.p. on day 1): 154% | % Weight change (L1210 leukemia; 180 mg/kg i.p. on day 1): −12% | weight loss (colon 38 carcinoma; 120 mg/kg given once): 16% | % TGI (colon 38 carcinoma; 120 mg/kg i.p. on day 1): 91% | % Weight change (colon 38 carcinoma; 120 mg/kg i.p. on day 1): −16% | Tumor weight (g ± SD) (colon 38 carcinoma; 120 mg/kg i.p. on day 1, control 1.20 ± 0.84): 0.11 ± 0.09 g | % TGI (colon 38 carcinoma; [2]): 43% | % Weight change (colon 38 carcinoma; [2]): −10% | Tumor weight (g ± SD) (colon 38 carcinoma; early stage, 67 mg/kg i.p. on days 1, 5 and 9, control 1.13 ± 0.39): 0.64 ± 0.50 g | % TGI (colon 38 carcinoma; [3]): 78% | % Weight change (colon 38 carcinoma; [3]): −12% | Tumor weight (g ± SD) (colon 38 carcinoma; early stage, 100 mg/kg i.p. on days 1, 5 and 9, control 1.13 ± 0.39): 0.25 ± 0.22 g | % TGI (colon 38 carcinoma; early stage, 150 mg/kg i.p. on days 1 and 5): 84% | Tumor weight (g ± SD) (colon 38 carcinoma; early stage, 150 mg/kg i.p. on days 1 and 5, control 1.13 ± 0.39): 0.18 ± 0.12 g | % TGI (colon 38 carcinoma; [4]): 80% | % Weight change (colon 38 carcinoma; [4]): −14% | Tumor weight (g ± SD) (colon 38 carcinoma; late stage, 100 mg/kg i.p. on days 9, 13 and 17, control 1.13 ± 0.39): 0.22 ± 0.14 g | % TGI (colon 38 carcinoma; late stage, 150 mg/kg i.p. on days 9 and 13): 79% | Tumor weight (g ± SD) (colon 38 carcinoma; late stage, 150 mg/kg i.p. on days 9 and 13, control 1.13 ± 0.39): 0.24 ± 0.18 g | fold less potent than HCPT (IC50) (L1210 leukemia cells; [5]): 8 fold | DNA fragmentation / apoptosis (L1210 leukemia cells): caused DNA fragmentation and cells died by apoptosis | IC50 (L1210 leukemia cells): 1800 nM | % ILS (Lewis lung carcinoma; 80 mg/kg i.p. on day 1): 23% | % TGI (Lewis lung carcinoma; 80 mg/kg i.p. on day 1): 48% | % Weight change (Lewis lung carcinoma; 80 mg/kg i.p. on day 1): −5% | Tumor weight (g ± SD) (Lewis lung carcinoma; 80 mg/kg i.p. on day 1, control 1.77 ± 0.89): 0.93 ± 0.53 g | % TGI (Lewis lung carcinoma; [6]): 88% | % Weight change (Lewis lung carcinoma; [6]): −9% | Tumor weight (g ± SD) (Lewis lung carcinoma; 100 mg/kg i.p. on days 1, 5, and 9, control 1.20 ± 0.61): 0.15 ± 0.10 g | % ILS (Lewis lung carcinoma; 120 mg/kg i.p. on day 1): 33% | % TGI (Lewis lung carcinoma; 120 mg/kg i.p. on day 1): 83% | % Weight change (Lewis lung carcinoma; 120 mg/kg i.p. on day 1): −10% | Tumor weight (g ± SD) (Lewis lung carcinoma; 120 mg/kg i.p. on day 1, control 1.77 ± 0.89): 0.31 ± 0.18 g | cures (Lewis lung carcinoma; 120 mg/kg, multiple doses (days 1, 5, and 9)): 50% | bodyweight loss (Lewis lung carcinoma; 120 mg/kg, one dose i.p., stated as loss): 10%

N.N.[Cl][Pt][Cl] [Cisplatin, reference compound]
% TGI (colon 38 carcinoma; 10 mg/kg i.p. on day 1): 88% | % Weight change (colon 38 carcinoma; 10 mg/kg i.p. on day 1): −20% | Tumor weight (g ± SD) (colon 38 carcinoma; 10 mg/kg i.p. on day 1, control 1.20 ± 0.84): 0.14 ± 0.07 g | weight loss (colon 38 carcinoma; given once (10 mg/kg per Table 8)): 20% | % TGI (Lewis lung carcinoma; [7]): 73% | % Weight change (Lewis lung carcinoma; [7]): −19% | Tumor weight (g ± SD) (Lewis lung carcinoma; 5 mg/kg i.p. on days 1, 5, and 9, control 1.20 ± 0.61): 0.32 ± 0.17 g

O=P1(N(CCCl)CCCl)NCCCO1 (stereo not drawn) [Cyclophosphamide, reference compound]
% ILS (L1210 leukemia; [8]): 173% | % Weight change (L1210 leukemia; [8]): −15% | 30-day survivors (cures) (L1210 leukemia; 125 mg/kg i.p. on days 1, 5 and 9, 6 mice/group): 0 | % ILS (L1210 leukemia; 200 mg/kg i.p. on day 1): 123% | % Weight change (L1210 leukemia; 200 mg/kg i.p. on day 1): −9% | 30-day survivors (L1210 leukemia; 200 mg/kg i.p. on day 1, 6 mice/group): 0

COc1cccc2c1C(=O)c1c(O)c3c(c(O)c1C2=O)C[C@@](O)(C(=O)CO)C[C@@H]3O[C@H]1C[C@H](N)[C@H](O)[C@H](C)O1 [Dox, Doxorubicin, reference compound]
IC50 (L1210 leukemia cells; Mus musculus): 180 ± 90 nM

CC[C@@]1(O)C(=O)OCc2c1cc1n(c2=O)Cc2cc3cc(O)ccc3nc2-1 [HCPT, 10-hydroxycamptothecin, reference compound]
% ILS (L1210 leukemia; 15 mg/kg i.p. on day 1): 77% | % Weight change (L1210 leukemia; 15 mg/kg i.p. on day 1): −10% | bodyweight loss (L1210 leukemia; 15 mg/kg, one dose, stated as loss): 10% | % ILS (L1210 leukemia; 20 mg/kg i.p. on day 1): 108% | 30-day survivors (L1210 leukemia; 20 mg/kg i.p. on day 1, 6 mice/group): 0 | % Weight change (L1210 leukemia; 20 mg/kg i.p. on day 1, BDF1 mice, day 0 to lightest weight): −16% | DNA fragmentation / apoptosis (L1210 leukemia cells): caused DNA fragmentation and cells died by apoptosis | IC50 (L1210 leukemia cells): 230 nM | % ILS (Lewis lung carcinoma; 20 mg/kg i.p. on day 1): 16% | % TGI (Lewis lung carcinoma; 20 mg/kg i.p. on day 1): 57% | % Weight change (Lewis lung carcinoma; 20 mg/kg i.p. on day 1): −24% | Tumor weight (g ± SD) (Lewis lung carcinoma; 20 mg/kg i.p. on day 1, control 1.77 ± 0.89): 0.76 ± 0.59 g | weight loss (Lewis lung carcinoma; 20 mg/kg, one dose i.p., stated as loss): 24%

CC[C@@]1(O)C(=O)OCc2c1cc1n(c2=O)Cc2cc3cc(OC(=O)N4CCC(N5CCCCC5)CC4)ccc3nc2-1 [PP-HCPT, 10-[4-(1-Piperidino)-1-piperidino]carbonyloxycamptothecin]
% ILS (L1210 leukemia; 37 mg/kg i.p. on day 1): 46% | % Weight change (L1210 leukemia; 37 mg/kg i.p. on day 1): 5% | 30-day survivors (L1210 leukemia; 37 mg/kg i.p. on day 1, 6 mice/group): 0 | % ILS (L1210 leukemia; 73 mg/kg i.p. on day 1): 77% | % Weight change (L1210 leukemia; 73 mg/kg i.p. on day 1): 2% | 30-day survivors (L1210 leukemia; 73 mg/kg i.p. on day 1, 6 mice/group): 0 | % ILS (L1210 leukemia; [9]): 123% | % Weight change (L1210 leukemia; [9]): −18% | fold less potent than DHA-HCPT (IC50) (L1210 leukemia cells; [5]): 16 fold | fold less potent than HCPT (IC50) (L1210 leukemia cells; [5]): 128 fold | IC50 (L1210 leukemia cells): 30000 nM

Reference: patent US6759416B2, “Anticancer conjugates of camptothecin and unsaturated fatty acids” (priority 2002, dated 2004)
